Laboratory results from patent publication US10160747B2, “Compounds and methods for kinase modulation, and indications therefor” (Plexxikon Inc., priority 2016, dated 2018).
pIC50: −log10 of the molar value.

Biological target: T1, FLT3-ITD (Homo sapiens, UniProt P36888)
T1 sequence (P36888 1-993): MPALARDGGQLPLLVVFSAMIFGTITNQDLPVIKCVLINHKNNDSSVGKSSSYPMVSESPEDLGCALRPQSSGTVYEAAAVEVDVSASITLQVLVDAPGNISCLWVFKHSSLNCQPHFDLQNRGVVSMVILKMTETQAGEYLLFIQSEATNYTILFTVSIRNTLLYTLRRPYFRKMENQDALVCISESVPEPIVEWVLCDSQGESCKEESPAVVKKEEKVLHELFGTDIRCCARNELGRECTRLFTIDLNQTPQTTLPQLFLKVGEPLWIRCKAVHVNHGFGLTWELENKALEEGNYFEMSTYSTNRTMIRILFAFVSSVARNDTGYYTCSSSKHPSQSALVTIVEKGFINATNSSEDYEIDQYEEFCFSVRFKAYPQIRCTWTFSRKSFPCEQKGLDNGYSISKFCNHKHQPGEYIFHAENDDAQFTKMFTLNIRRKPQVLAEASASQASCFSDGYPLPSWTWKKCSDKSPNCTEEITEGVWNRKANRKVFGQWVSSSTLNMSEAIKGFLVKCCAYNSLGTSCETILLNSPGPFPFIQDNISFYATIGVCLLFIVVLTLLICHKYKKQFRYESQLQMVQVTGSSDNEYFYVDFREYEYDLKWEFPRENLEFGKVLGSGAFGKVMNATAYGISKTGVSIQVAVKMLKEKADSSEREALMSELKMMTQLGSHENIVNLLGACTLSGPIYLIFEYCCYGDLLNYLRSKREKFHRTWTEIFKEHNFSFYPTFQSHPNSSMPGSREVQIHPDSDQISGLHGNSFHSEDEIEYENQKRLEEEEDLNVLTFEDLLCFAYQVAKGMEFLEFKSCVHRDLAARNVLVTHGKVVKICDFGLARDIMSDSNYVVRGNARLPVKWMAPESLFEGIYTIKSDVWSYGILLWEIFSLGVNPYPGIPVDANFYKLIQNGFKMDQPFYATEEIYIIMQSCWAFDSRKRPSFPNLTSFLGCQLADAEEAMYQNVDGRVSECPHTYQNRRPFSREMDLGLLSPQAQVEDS
Assay: FLT3-ITD recombinant enzyme kinase assay (AlphaScreen)
Type: biochemical
Settings: 8 pt; read-out: FLT3_ITD 8 pt: IC50
Method in brief: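 Recombinant enzyme phosphorylated biotinylated poly(Glu4-Tyr) peptide (30 nM final) with ATP at 10 μM for FLT3-ITD and FLT3-D835Y or 100 μM for c-KIT. Phosphopeptide was detected by AlphaScreen with streptavidin donor and anti-phosphotyrosine (PY20) acceptor beads (10 μg/mL), read at 580 nm, for IC50 determination.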

| pIC50 | Compound |
| --- | --- |
| 5.00 to 10.00 | CCc1cncc(NC(=O)Cc2ccc(-c3cnc(Nc4cnn(C)c4)nc3)cc2F)c1 [Compound P-0111, N-(5-ethyl-3-pyridyl)-2-[2-fluoro-4-[2-[(1-methylpyrazol-4-yl)amino]pyrimidin-5-yl]phenyl]acetamide] |
| 5.00 to 10.00 | Cn1cc(Nc2ncc(-c3ccc(CC(=O)Nc4cccnc4)cc3)cn2)cn1 [Compound P-0131, 2-[4-[2-[(1-methylpyrazol-4-yl)amino]pyrimidin-5-yl]phenyl]-N-(3-pyridyl)acetamide] |
| 5.00 to 10.00 | Cn1cc(Nc2ncc(-c3ccc(CC(=O)NCc4cccnc4)cc3)cn2)cn1 [Compound P-0132, 2-[4-[2-[(1-methylpyrazol-4-yl)amino]pyrimidin-5-yl]phenyl]-N-(3-pyridylmethyl)acetamide] |
| 5.00 to 10.00 | COc1cncc(NC(=O)Cc2ccc(-c3cnc(Nc4cnn(C)c4)nc3)cc2)c1 [Compound P-0133, N-(5-methoxy-3-pyridyl)-2-[4-[2-[(1-methylpyrazol-4-yl)amino]pyrimidin-5-yl]phenyl]acetamide] |
| 5.00 to 10.00 | Cn1cc(Nc2ncc(-c3ccc(CC(=O)Nc4ccnc(C(F)(F)F)c4)cc3)cn2)cn1 [Compound P-0134, 2-[4-[2-[(1-methylpyrazol-4-yl)amino]pyrimidin-5-yl]phenyl]-N-[2-(trifluoromethyl)-4-pyridyl]acetamide] |
| 5.00 to 10.00 | Cn1cc(Nc2ncc(-c3ccc(CC(=O)Nc4cc(C(F)(F)F)ncn4)cc3)cn2)cn1 [Compound P-0135, 2-[4-[2-[(1-methylpyrazol-4-yl)amino]pyrimidin-5-yl]phenyl]-N-[6-(trifluoromethyl)pyrimidin-4-yl]acetamide] |
| 5.00 to 10.00 | Cn1cc(Nc2ncc(-c3ccc(CC(=O)Nc4cncc(C(F)(F)F)c4)cc3)cn2)cn1 [Compound P-0136, 2-[4-[2-[(1-methylpyrazol-4-yl)amino]pyrimidin-5-yl]phenyl]-N-[5-(trifluoromethyl)-3-pyridyl]acetamide] |
| 5.00 to 10.00 | Cn1cc(Nc2ncc(-c3ccc(CC(=O)Nc4ccnc(C(F)(F)F)n4)cc3)cn2)cn1 [Compound P-0137, 2-[4-[2-[(1-methylpyrazol-4-yl)amino]pyrimidin-5-yl]phenyl]-N-[2-(trifluoromethyl)pyrimidin-4-yl]acetamide] |
| 5.00 to 10.00 | COc1ncc(NC(=O)Cc2ccc(-c3cnc(Nc4cnn(C)c4)nc3)cc2)cc1C(F)(F)F [Compound P-0138, N-[6-methoxy-5-(trifluoromethyl)-3-pyridyl]-2-[4-[2-[(1-methylpyrazol-4-yl)amino]pyrimidin-5-yl]phenyl]acetamide] |
| 5.00 to 10.00 | Cn1cc(Nc2ncc(-c3ccc(CC(=O)Nc4cc(C(F)(F)F)ccn4)cc3)cn2)cn1 [Compound P-0139, 2-[4-[2-[(1-methylpyrazol-4-yl)amino]pyrimidin-5-yl]phenyl]-N-[4-(trifluoromethyl)-2-pyridyl]acetamide] |
| 5.00 to 10.00 | Cc1ncc(NC(=O)Cc2ccc(-c3cnc(Nc4cnn(C)c4)nc3)cc2)cc1C(F)(F)F [Compound P-0140, 2-[4-[2-[(1-methylpyrazol-4-yl)amino]pyrimidin-5-yl]phenyl]-N-[6-methyl-5-(trifluoromethyl)-3-pyridyl]acetamide] |
| 5.00 to 10.00 | Cn1cc(Nc2ncc(-c3ccc(CC(=O)Nc4cccc(C(F)(F)F)c4)cc3)cn2)cn1 [Compound P-0141, 2-[4-[2-[(1-methylpyrazol-4-yl)amino]pyrimidin-5-yl]phenyl]-N-[3-(trifluoromethyl)phenyl]acetamide] |
| 5.00 to 10.00 | Cn1cc(Nc2ncc(-c3ccc(CC(=O)Nc4ccc(C(F)(F)F)c(F)c4)cc3)cn2)cn1 [Compound P-0142, N-[3-fluoro-4-(trifluoromethyl)phenyl]-2-[4-[2-[(1-methylpyrazol-4-yl)amino]pyrimidin-5-yl]phenyl]acetamide] |
| 5.00 to 10.00 | Cn1cc(Nc2ncc(-c3ccc(CC(=O)Nc4ccc(C(C)(C)C)nc4)cc3)cn2)cn1 [Compound P-0143, N-(6-tert-butyl-3-pyridyl)-2-[4-[2-[(1-methylpyrazol-4-yl)amino]pyrimidin-5-yl]phenyl]acetamide] |
| 5.00 to 10.00 | Cn1cc(Nc2ncc(-c3ccc(CC(=O)Nc4cncc(C(C)(F)F)c4)cc3)cn2)cn1 [Compound P-0144, N-[5-(1,1-difluoroethyl)-3-pyridyl]-2-[4-[2-[(1-methylpyrazol-4-yl)amino]pyrimidin-5-yl]phenyl]acetamide] |
| 5.00 to 10.00 | Cn1cc(Nc2ncc(-c3ccc(CC(=O)Nc4cnc(Cl)c(C(F)(F)F)c4)cc3)cn2)cn1 [Compound P-0145, N-[6-chloro-5-(trifluoromethyl)-3-pyridyl]-2-[4-[2-[(1-methylpyrazol-4-yl)amino]pyrimidin-5-yl]phenyl]acetamide] |
| 5.00 to 10.00 | Cn1cc(Nc2ncc(-c3ccc(CC(=O)Nc4ccc(C(C)(C)C#N)nc4)cc3)cn2)cn1 [Compound P-0146, N-[6-(1-cyano-1-methyl-ethyl)-3-pyridyl]-2-[4-[2-[(1-methylpyrazol-4-yl)amino]pyrimidin-5-yl]phenyl]acetamide] |
| 5.00 to 10.00 | COc1ncc(NC(=O)Cc2ccc(-c3cnc(Nc4cn(C)cn4)nc3)cc2)cc1C(F)(F)F [Compound P-0149, N-[6-methoxy-5-(trifluoromethyl)-3-pyridyl]-2-[4-[2-[(1-methylimidazol-4-yl)amino]pyrimidin-5-yl]phenyl]acetamide] |
| 5.00 to 10.00 | Cc1ncc(NC(=O)Cc2ccc(-c3cnc(Nc4cn(C)cn4)nc3)cc2)cc1C(F)(F)F [Compound P-0150, 2-[4-[2-[(1-methylimidazol-4-yl)amino]pyrimidin-5-yl]phenyl]-N-[6-methyl-5-(trifluoromethyl)-3-pyridyl]acetamide] |
| 5.00 to 10.00 | Cn1cc(Nc2ncc(-c3ccc(CC(=O)Nc4cnnc(Cl)c4)cc3)cn2)cn1 [Compound P-0151, N-(6-chloropyridazin-4-yl)-2-[4-[2-[(1-methylpyrazol-4-yl)amino]pyrimidin-5-yl]phenyl]acetamide] |
| 5.00 to 10.00 | Cn1cc(Nc2ncc(-c3ccc(CC(=O)Nc4cccc(C(F)(F)F)n4)cc3)cn2)cn1 [Compound P-0152, 2-[4-[2-[(1-methylpyrazol-4-yl)amino]pyrimidin-5-yl]phenyl]-N-[6-(trifluoromethyl)-2-pyridyl]acetamide] |
| 5.00 to 10.00 | COc1cc(NC(=O)Cc2ccc(-c3cnc(Nc4cnn(C)c4)nc3)cc2)ccn1 [Compound P-0153, N-(2-methoxy-4-pyridyl)-2-[4-[2-[(1-methylpyrazol-4-yl)amino]pyrimidin-5-yl]phenyl]acetamide] |
| 5.00 to 10.00 | Cn1cc(Nc2ncc(-c3ccc(CC(=O)Nc4ccnc(S(C)(=O)=O)c4)cc3)cn2)cn1 [Compound P-0154, 2-[4-[2-[(1-methylpyrazol-4-yl)amino]pyrimidin-5-yl]phenyl]-N-(2-methylsulfonyl-4-pyridyl)acetamide] |
| 5.00 to 10.00 | Cn1cc(Nc2ncc(-c3ccc(CC(=O)Nc4cccc(S(C)(=O)=O)c4)cc3)cn2)cn1 [Compound P-0155, 2-[4-[2-[(1-methylpyrazol-4-yl)amino]pyrimidin-5-yl]phenyl]-N-(3-methylsulfonylphenyl)acetamide] |
| 5.00 to 10.00 | Cn1cc(Nc2ncc(-c3ccc(CC(=O)Nc4ccc(S(C)(=O)=O)cc4)cc3)cn2)cn1 [Compound P-0156, 2-[4-[2-[(1-methylpyrazol-4-yl)amino]pyrimidin-5-yl]phenyl]-N-(4-methylsulfonylphenyl)acetamide] |
| 5.00 to 10.00 | Cn1cc(Nc2ncc(-c3ccc(CC(=O)Nc4cccc(OC(F)(F)F)c4)cc3)cn2)cn1 [Compound P-0157, 2-[4-[2-[(1-methylpyrazol-4-yl)amino]pyrimidin-5-yl]phenyl]-N-[3-(trifluoromethoxy)phenyl]acetamide] |
| 5.00 to 10.00 | Cn1cc(Nc2ncc(-c3ccc(CC(=O)Nc4cccc(C(C)(C)C#N)c4)cc3)cn2)cn1 [Compound P-0158, N-[3-(1-cyano-1-methyl-ethyl)phenyl]-2-[4-[2-[(1-methylpyrazol-4-yl)amino]pyrimidin-5-yl]phenyl]acetamide] |
| 5.00 to 10.00 | Cn1cc(Nc2ncc(-c3ccc(CC(=O)NCc4ncccc4C(F)(F)F)cc3)cn2)cn1 [Compound P-0159, 2-[4-[2-[(1-methylpyrazol-4-yl)amino]pyrimidin-5-yl]phenyl]-N-[[3-(trifluoromethyl)-2-pyridyl]methyl]acetamide] |
| 5.00 to 10.00 | COc1ccccc1CNC(=O)Cc1ccc(-c2cnc(Nc3cnn(C)c3)nc2)cc1 [Compound P-0160, N-[(2-methoxyphenyl)methyl]-2-[4-[2-[(1-methylpyrazol-4-yl)amino]pyrimidin-5-yl]phenyl]acetamide] |
